Experimental data reported in patent US20250360205A1, “NOD1 MODULATORS AND USES THEREOF” (Academia Sinica, priority 2022, published 2025).

Molecular target: T1, NOD1 (Homo sapiens, UniProt Q9Y239)
T1 construct: host or cells: HEK-Blue hNOD1 cells (HEK293-derived, with NF-κB-inducible SEAP reporter)
T1 sequence (Q9Y239 1-953): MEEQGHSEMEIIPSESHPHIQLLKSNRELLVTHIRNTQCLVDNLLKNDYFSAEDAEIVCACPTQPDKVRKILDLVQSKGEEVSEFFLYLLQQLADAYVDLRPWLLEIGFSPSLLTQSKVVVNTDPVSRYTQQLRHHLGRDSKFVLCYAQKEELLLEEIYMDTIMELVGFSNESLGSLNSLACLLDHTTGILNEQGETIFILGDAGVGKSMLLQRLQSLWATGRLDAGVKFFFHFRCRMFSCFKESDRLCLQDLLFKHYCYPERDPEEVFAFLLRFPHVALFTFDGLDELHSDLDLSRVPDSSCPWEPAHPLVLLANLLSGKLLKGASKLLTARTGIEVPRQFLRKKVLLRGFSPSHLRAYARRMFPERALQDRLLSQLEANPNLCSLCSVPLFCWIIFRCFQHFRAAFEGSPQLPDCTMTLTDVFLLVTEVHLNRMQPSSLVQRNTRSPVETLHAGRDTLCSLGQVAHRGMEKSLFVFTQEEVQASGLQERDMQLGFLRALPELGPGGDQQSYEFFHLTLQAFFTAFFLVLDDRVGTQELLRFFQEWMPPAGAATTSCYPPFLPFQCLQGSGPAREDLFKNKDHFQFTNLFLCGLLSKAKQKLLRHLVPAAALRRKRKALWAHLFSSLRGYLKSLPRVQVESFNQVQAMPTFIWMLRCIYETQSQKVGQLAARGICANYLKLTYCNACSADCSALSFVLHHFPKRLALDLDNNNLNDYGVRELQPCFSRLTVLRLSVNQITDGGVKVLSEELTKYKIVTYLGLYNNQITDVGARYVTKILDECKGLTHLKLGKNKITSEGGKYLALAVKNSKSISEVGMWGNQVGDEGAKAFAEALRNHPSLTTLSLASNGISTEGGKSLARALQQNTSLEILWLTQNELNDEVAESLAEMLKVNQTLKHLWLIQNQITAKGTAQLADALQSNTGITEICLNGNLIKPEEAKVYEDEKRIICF
Assay: NOD1-induced NF-κB activation assay (SEAP reporter) in HEK-Blue hNOD1 cells
Type: cell-based
Settings: 16 h; for NOD1 stimulation potency (NF-κB activity): 0.1 μM, FIG. 1, relative to iE-DAP, C12-iE-DAP, Tri-DAP
Experimental: Measurement of NOD1-induced NF-κB Activation Assay
HEK-Blue™ hNOD1 Cells (Invivogen; San Diego, CA, U.S.) were cultured in accordance with the manufacturer's instructions. HEK-Blue™ hNOD1 Cells was assayed for NF-κB transcriptional activity changes upon incubation (3.6×10^5 cells/mL) with iE-DAP, C12-iE-DAP, Tri-DAP (Invivogen, San Diego, CA, U.S.) and other NOD1 agonistic compounds (0.1-10 μM) for 16 h. Secreted embryonic alkaline phosphatase (SEAP) activity was determined in the supernatant in accordance with the manufacturer's instructions. An amount of 20 μL of SEAP-inducer compound or negative control was added to 180 μL of cells in HEK-Blue™ detection medium and incubated at 37° C. for 16 h. Absorbance was measured on a SpectraMax M5 (Molecular Devices, Sunnyvale, CA, U.S.) at 640 nm.

| fold increase of NF-κB activity (1 μM, FIGS. 2 and 3) | NOD1 stimulation potency (NF-κB activity) | SMILES |
| --- | --- | --- |
| 20 fold | – | C[C@H](N)C(=O)N[C@H](CCC(=O)N[C@H](CO)CCC[C@@H](N)C(=O)O)C(=O)O [Compound 6] |
| – | decreased dramatically | COc1ccc(CC(=O)NC(C)C(=O)NC(CCC(=O)NC(CO)CCCC(N)C(=O)O)C(=O)O)cc1 (stereo not drawn) [Compound 14f] |
| – | decreased dramatically | CC(NC(=O)Cc1ccc(-c2ccccc2)cc1)C(=O)NC(CCC(=O)NC(CO)CCCC(N)C(=O)O)C(=O)O (stereo not drawn) [Compound 14h] |
